Measured values: EP0408108A2, “Pharmaceutical compositions containing acrylic acid derivatives and their use in the medicine” (RICHTER GEDEON VEGYESZETI GYAR R.T., priority 1989, dated 1991)
In brackets after ≈: the same amount, converted by molar mass.

What was measured:
[1] = tested on: chronic ulcer model induced by acetic acid; assay: Assay of a chronic ulcer model induced by acetic acid (Tagaki et al); format: in vivo, rats; details: from day 5 to day 10 after operation, sacrificed day 15
Procedure: 2)Assay of a chronic ulcer model induced by acetic acid
The assay was carried out in the following manner. Abdominal wall of femal rats previously fasted for 24 hours was incised under ether anaesthesia. A 20% solution of acetic acid (25 µl) was injected to the subserosus layer of the glandular part of the stomach near the pylorus. Thereafter the abdominal wall was closed and the animal was kept on normal diet, by providing feed and water ad libitum. The treatment was started 5 days after the operation and continued until the 10th day by administering the test compound once a day The animals were sacrificed 15 days after the operation and their stomach was removed. The extent of the ulcer was determined by measuring the diameter of the necrotic regions and calculating their total area. The curative effect of the tested compounds was calculated by the following formula in %: [formula]

gastric acid secretion = assay: Assay of the inhibition of gastric acid secretion by using pylorus ligature (Shay et al.); format: in vivo, Wistar rats; details: for inhibition at 10 mg/kg: read-out: % Inhibition in the amount of the acid at a dose of 10 mg/kg p.o. (pretreatment: 30 min)
Procedure: 3) Assay of the inhibition of gastric acid secretion -by using pylorus ligature
[Shay et al., Gastroenterology, 5, 43-61 (1945)]
Before ligating the pylorus the test compounds suspended with Tween were given orally at a volume of 0.5 ml per […] of body weight to female Wistar rats fasted previously for 20 hours. The animals were sacrificed 4 hours after the operation, and the amount of the acid in the stomach was measured by titration with 0.01N sodium hydroxide solution in the presence of phenolphtalein indicator. The pH value of the content of stomach was measured by using a pH-meter (Radelkis, Type OP-211/1).

[2] = tested on: gastric injuries induced by acidic alcohol; assay: Assay of gastric injuries induced by acidic alcohol (Robert); format: in vivo, rats; details: for ED₅₀ p.o. (pretreatment: 30 min) / ED50: haemorrhagic lesions after acidic alcohol, female rats; for inhibition at 10 mg/kg / ED50: Rattus norvegicus, po, pretreatment 30 min; for inhibition at 10 mg/kg: read-out: % Inhibition at a dose of 10 mg/kg p.o. (pretreatment: 30 min); for ED50: read-out: ED₅₀ p.o. (pretreatment: 30 min)
Procedure: 1) Assay of gastric injuries induced by acidic alcohol [A. Robert, Gastroenterology, 77, 761-767 (1979)] Female rats weighing about 120 to 150 g fasted for 24 hours were used in this test. Test compounds suspended with Tween 80 were given orally to the animals through an intragastric tube. After a certain period (pretreatment time) acidic alcohol was given through the intragastric tube at a dose or 0.5 ml per 100 g of body weight. The animals were sacrificed after 1 hour, their stomach was removed and incised along the great curve. The length of the reddish-brown strips (haemorrhagic lesions) was measured and the mean total length per stomach was calculated. The biological activity of the test compounds was given compared to the control group.

Campylobacter pylori = assay: Activity against Campylobacter pylori by agar diffusion and agar dilution methods; format: cell-based; details: Helicobacter pylori; Campylobacter pylori cultures isolated from 5 different ulcerous patients; read-out: MIC (minimal inhibitory concentration)
Procedure: The activity of the compounds of formula (I) against Campylobacter pylori was investigated by agar diffusion and agar dilution methods. The experiments were carried out with Campylobacter pylori cultures isolated from 5 different ulcerous patients.

[3] = 10 mg/kg p.o., compared to the control group
[4] = Rattus norvegicus, po, 10 mg/kg p.o., pretreatment 30 min, acid titrated 4 hours after pylorus ligature

With O=C(O)/C=C/S(=O)(=O)c1ccccc1 [F, 3-phenylsulfonyl-2(E)-propenoic acid] the “% Curative effect” value ([1]; 50 mg/kg p.o. once a day) was 37%, the “% Inhibition in the amount of the acid at a dose of 10 mg/kg p.o. (pretreatment: 30 min)” value (gastric acid secretion; 10 mg/kg p.o., acid titrated 4 hours after pylorus ligature) was 48% and the “ED₅₀ p.o. (pretreatment: 30 min)” value (gastric acid secretion; p.o., gastric acid secretion, pylorus ligature, 4 hours after operation) was 12.0 mg/kg. For the same compound, the “% Inhibition at a dose of 10 mg/kg p.o. (pretreatment: 30 min)” value [2, 3] was 86% and the “ED₅₀ p.o. (pretreatment: 30 min)” value [2] was 3.4 mg/kg.

Work on O=C(O)/C=C\[S+]([O-])c1ccccc1 (stereo not drawn) [C, 3-phenylsulfinyl-2(Z)-propenoic acid] yielded an inhibition at 10 mg/kg (gastric acid secretion; [4]) of 15% and an inhibition at 10 mg/kg [2, 3] of 56%.

O=C(O)/C=C/Sc1ccccc1 [B, 3-phenylthio-2(E)-propenoic acid] gave an ED50 [2] of 31 mg/kg.

With O=C(O)/C=C\S(=O)(=O)c1ccccc1 [Compound E, 3-phenylsulfonyl-2(Z)-propenoic acid] the inhibition at 10 mg/kg [2, 3] was 13%.

For COC(=O)/C=C/S(=O)(=O)c1ccccc1 [I, methyl 3-phenylsulfonyl-2(E)-propenoate], the “% Curative effect” value ([1]; 30 mg/kg p.o. once a day) was 73%, the inhibition at 10 mg/kg (gastric acid secretion; [4]) was 21% and the inhibition at 10 mg/kg [2, 3] was 98%. For the same compound, the MIC (Campylobacter pylori) was 250 to 270 µg/mL (≈ 1100 to 1190 µM).

In the case of Sucralfat [reference compound], the “% Curative effect” value ([1]; 500 mg/kg p.o. once a day) was 55% and the “ED₅₀ p.o. (pretreatment: 30 min)” value [2] was 150 mg/kg.

O=C(O)/C=C/S(=O)(=O)c1ccccc1 [H, magnesium bis[3-phenylsulfonyl-2(E)-propenoate]hydrate] was tested, and the “% Curative effect” value ([1]; 30 mg/kg p.o. once a day) was 27%, the ED50 (gastric acid secretion; Rattus norvegicus, po, pretreatment 30 min, gastric acid secretion, pylorus ligature, 4 hours after operation, read-out: ED₅₀ p.o. (pretreatment: 30 min)) was 10 mg/kg and the inhibition at 10 mg/kg (gastric acid secretion; [4]) was 63%. The ED50 [2] was 3.2 mg/kg and the inhibition at 10 mg/kg [2, 3] was 96%.

O=C(O)/C=C/[S+]([O-])c1ccccc1 (stereo not drawn) [Compound D, 3-phenylsulfinyl-2(E)-propenoic acid] showed an inhibition at 10 mg/kg (gastric acid secretion; [4]) of 22%, an ED50 [2] of 4.2 mg/kg and an inhibition at 10 mg/kg [2, 3] of 64%.

In the case of O=C(O)/C=C/Sc1ccccc1 [G, magnesium bis[3-phenylthio-2(E)-propenoate]], the inhibition at 10 mg/kg (gastric acid secretion; [4]) was 16%.
